Patent US20090155869A1 (Gevo, Inc., priority 2006, published 2009)

Assays:
[1] = biological target: T1, M. elsdenii Bcd (Megasphaera elsdenii, UniProt Q06319); conditions: inhibition of M. elsdenii Bcd; cited from earlier work
T1 sequence (Q06319 1-383): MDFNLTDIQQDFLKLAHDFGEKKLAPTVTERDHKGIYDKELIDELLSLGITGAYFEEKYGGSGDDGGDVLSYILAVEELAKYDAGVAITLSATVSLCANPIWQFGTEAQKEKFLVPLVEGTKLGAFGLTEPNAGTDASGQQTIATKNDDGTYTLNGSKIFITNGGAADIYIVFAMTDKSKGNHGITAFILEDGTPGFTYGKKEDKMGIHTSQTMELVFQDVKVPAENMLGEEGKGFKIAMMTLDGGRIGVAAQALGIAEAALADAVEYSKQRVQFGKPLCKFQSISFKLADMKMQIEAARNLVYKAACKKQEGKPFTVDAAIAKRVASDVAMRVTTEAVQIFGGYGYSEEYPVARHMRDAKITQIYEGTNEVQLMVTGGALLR

[2] = system: C. acetobutylicum P262 Bcd; conditions: read-out: Km of the C. acetobutylicum P262 Bcd for butyryl-CoA; cited from earlier work
[3] = system: Bcd; conditions: read-out: Km of Bcd for butyryl-CoA; unit inferred; cited from earlier work
[4] = biological target: crotonase (Crt) from C. acetobutylicum (Clostridium acetobutylicum, UniProt P52046); conditions: crotonyl-CoA as substrate of C. acetobutylicum crotonase; cited from earlier work
[5] = in-vitro activity assay of Hbd homologues in lysate, NADH consumption at 340 nm; format: biochemical; conditions: lysate of GEVO768 (E. coli W3110Z1) transformant, 0.1 mM acetoacetyl CoA, 0.2 mM NADH, pH 7.0
Description: (§1) In particular, homologues of the pathway enzymes hydroxyl butyryl CoA dehydrogenase (Hbd), crotonase (Crt) and thiolase (Th1) were expressed and compared by in-vitro activity assay. The hydroxyl butyryl CoA dehydrogenase homologues tested were pGV1037 (Hbd from Clostridium acetobutylicum), pGV1041 (Hbd from Butyrivibrio fibrisolvens), pGV1050 (Hbd from Clostridium beijerinkii), and pGV1154 (Hbd from Clostridium acetobutylicum, codon optimized gene sequence). The crotonase homologues tested were pGV1040 (Crt from Butyrivibrio fibrisolvens), pGV1049 (Crt from Clostridium beijerinkii), pGV1094 (Crt from Clostridium acetobutylicum) and pGV1189 (Crt from Clostridium acetobutylicum, codon optimized gene sequence). The thiolase homologues tested were pGV1035 (Th1 from Clostridium acetobutylicum), pGV1039 (Th1 from Butyrivibrio fibrisolvens), and pGV1188 (Th1 from Clostridium acetobutylicum, codon optimized gene sequence). The genes were expressed and assayed as per the following outlined protocol
(§2) GEVO768 (E. coli W3110Z1) was transformed with each of the plasmids and the transformants were plated on LB media with 100 μg/mL of chloramphenicol. The plates were incubated at 37° C. for 14-16 hours. Single colonies of the clones were used to inoculate 3 mL of LB media with 100 μg/mL of chloramphenicol. The cultures were incubated overnight at 37° C. at 250 rpm. The overnight cultures were used to inoculate 50 mL of EZ-rich medium in shake flasks with 100 μg/mL of chloramphenicol. The cultures were incubated at 37° C. at 250 rpm. At mid-exponential growth phase (OD600 0.6-0.8) the cultures were induced with 1 mM IPTG. […]
(§3) To test the activity of Hbd, 10 μL of the lysate was added to 190 μL of 50 mM MOPS pH 7.0 buffer containing 0.1 mM acetoacetyl CoA, and 0.2 mM NADH. The activity of Hbd was measured by monitoring the consumption of NADH at 340 nm. […] Enzyme activity was measured by monitoring the consumption of crotonyl CoA at 263 nm. […] Enzyme activity was measured by monitoring the consumption of acetoacetyl CoA at 303 nm. […]

[6] = in-vitro activity assay of Crt homologues in lysate, crotonyl CoA consumption at 263 nm; format: biochemical; conditions: lysate of GEVO768 (E. coli W3110Z1) transformant, 30 μM crotonyl CoA, pH 7.6
Description: as §1, §2, §3

Which Ki [1] does the source give for `CC(=O)CC(=O)O` [acetoacetate] here?
Its Ki is 100 nM.

What does the source list for `CCCC(=O)SCCNC(=O)CCNC(=O)[C@H](O)C(C)(C)COP(=O)(O)OP(=O)(O)OC[C@H]1O[C@@H](n2cnc3c(N)ncnc32)[C@H](O)[C@@H]1OP(=O)(O)O` [butyryl-CoA]?
Km [2]: ~6 µM; Km [3]: 5 µM

For `C/C=C/C(=O)SCCNC(=O)CCNC(=O)[C@H](O)C(C)(C)COP(=O)(O)OP(=O)(O)OC[C@H]1O[C@@H](n2cnc3c(N)ncnc32)[C@H](O)[C@@H]1OP(=O)(O)O` [crotonyl-CoA], which Km [4] is on record?
The Km was 30 µM.

And the Vmax [4]?
Its Vmax is 6.5×10^6 moles per min per mole.

Which “Specific activity (Hbd)” value [5] does the source give for “pGV1037: plasmid-expressed Hbd from Clostridium acetobutylicum” here?
The value was 3.51 nmol/min/μg total cell protein.

With “pGV1154: plasmid-expressed Hbd from Clostridium acetobutylicum, codon optimized gene sequence” as the molecule, how does the “Specific activity (Hbd)” value [5] read?
The value was 11.69 nmol/min/μg total cell protein.

And the “Specific activity (Hbd)” value ([5]; listed as Hbd)?
Its value is 11.6 nmol/min/μg total cell protein.

B1: GV1189: plasmid-expressed Crt from Clostridium acetobutylicum, codon optimized gene sequence (protein, UniProt P52046 1-261, looked up)
Short-chain-enoyl-CoA …: MELNNVILEKEGKVAVVTINRPKALNALNSDTLKEMDYVIGEIENDSEVLAVILTGAGEKSFVAGADISEMKEMNTIEGRKFGILGNKVFRRLELLEKPVIAAVNGFALGGGCEIAMSCDIRIASSNARFGQPEVGLGITPGFGGTQRLSRLVGMGMAKQLIFTAQNIKADEALRIGLVNKVVEPSELMNTAKEIANKIVSNAPVAVKLSKQAINRGMQCDIDTALAFESEAFGECFSTEDQKDAMTAFIEKRKIEGFKNR
For B1, which “Specific activity (Crt)” value [6] is on record?
The value was 916.99 nmol/min/μg total cell protein.

And the “Specific activity (Crt)” value ([6]; listed as crotonase)?
The value was 1178 nmol/min/μg total cell protein.

B2: pGV1094: plasmid-expressed Crt from Clostridium acetobutylicum (protein, UniProt P52046 1-261, looked up)
Short-chain-enoyl-CoA …: MELNNVILEKEGKVAVVTINRPKALNALNSDTLKEMDYVIGEIENDSEVLAVILTGAGEKSFVAGADISEMKEMNTIEGRKFGILGNKVFRRLELLEKPVIAAVNGFALGGGCEIAMSCDIRIASSNARFGQPEVGLGITPGFGGTQRLSRLVGMGMAKQLIFTAQNIKADEALRIGLVNKVVEPSELMNTAKEIANKIVSNAPVAVKLSKQAINRGMQCDIDTALAFESEAFGECFSTEDQKDAMTAFIEKRKIEGFKNR
Which “Specific activity (Crt)” value [6] does the source give for B2 here?
Its value is 83.39 nmol/min/μg total cell protein.
